pIC50, pKd: −log10 of the molar value. Read-outs that look alike come from different tables or passages of the source.
Columns and labels:
[1] = target: GDP-bound KRAS wild-type protein (Homo sapiens, UniProt P01116); test: Binding to KRAS by surface plasmon resonance (SPR), dissociation constant KD
How it was run: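 GDP-bound biotin-Avi RAS captured at ~100–300 RU, 30°C, pH 7.4 HBS containing 10 µM GDP, 10 mM MgCl2, 1 mM DTT, 0.01% Tween 20 and 4% DMSO. KD by 1:1 fitting.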

[2] = target: GDP-bound NRAS wild-type protein (Homo sapiens, UniProt P01111); test: Binding to NRAS by surface plasmon resonance (SPR), KD and KD ratio to KRAS
GDP-bound NRAS wild-type protein, sequence (P01111 whole entry): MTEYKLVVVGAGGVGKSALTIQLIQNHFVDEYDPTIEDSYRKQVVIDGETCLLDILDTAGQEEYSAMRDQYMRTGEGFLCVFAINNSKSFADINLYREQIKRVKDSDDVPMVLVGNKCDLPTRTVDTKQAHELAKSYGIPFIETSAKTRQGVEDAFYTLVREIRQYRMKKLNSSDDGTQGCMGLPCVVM
How it was run: (§1)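 Affinity is measured by surface plasmon resonance at 30°C against captured, GDP-loaded RAS carrying a biotinylated Avi tag. Compounds are titrated by single-cycle kinetics, and KD comes from a 1:1 fit.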

HRAS wild-type protein = HRAS wild-type protein (Homo sapiens, UniProt P01112); test: Binding to HRAS by surface plasmon resonance (SPR), KD and KD ratio to KRAS
HRAS wild-type protein, sequence (P01112 whole entry): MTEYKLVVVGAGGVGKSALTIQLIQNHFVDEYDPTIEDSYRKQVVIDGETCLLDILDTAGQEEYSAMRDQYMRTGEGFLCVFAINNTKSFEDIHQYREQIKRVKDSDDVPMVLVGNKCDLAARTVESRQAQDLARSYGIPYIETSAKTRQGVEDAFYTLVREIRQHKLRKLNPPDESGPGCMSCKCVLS
How it was run: as §1

[3] = tested on: human lung cancer strain NCI-H441; test: NCI-H441 cell proliferation inhibitory activity (CellTiter-Glo, 4 days); format: cell-based; settings: read-out: NCl-H441 IC50
How it was run: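 Readout: […] after the ATP-based reagent. Compound: serial dilutions in dimethyl sulfoxide.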

[4] = ratio of KD for GDP-bound NRAS wild-type protein to KD for KRAS
[5] = ratio of KD for HRAS wild-type protein to KD for KRAS
[6] = Single Cycle Kinetics, 1:1 binding model
[7] = ratio of KD with respect to GDP-bound NRAS wild-type protein to KD with respect to KRAS
[8] = ratio of KD with respect to HRAS wild-type protein to KD with respect to KRAS
[9] = 50% proliferation inhibitory concentration, four days

GDP-bound KRAS wild-type protein, sequence (P01116 1-188 isoform P01116-2): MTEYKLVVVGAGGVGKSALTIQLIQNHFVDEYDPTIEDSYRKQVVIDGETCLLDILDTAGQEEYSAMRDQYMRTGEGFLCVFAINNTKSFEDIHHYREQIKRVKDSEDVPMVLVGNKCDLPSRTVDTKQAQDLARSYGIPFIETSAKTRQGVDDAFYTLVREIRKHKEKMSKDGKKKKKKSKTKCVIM

| Compound | pKd ([1]; Single Cycle Kinetics) | NRAS /KRAS [2, 4] | HRAS /KRAS (HRAS wild-type protein; [5]) | pIC50 ([3]; NCI-H441 cells, 4 days) | pKd [1, 6] | NRAS /KRAS [2, 7] | HRAS /KRAS (HRAS wild-type protein; [8]) | pIC50 [3, 9] | pKd ([1]; 1:1 binding model) |
| --- | --- | --- | --- | --- | --- | --- | --- | --- | --- |
| CCC[C@H]1C(=O)N[C@@H](C2CCCC2)C(=O)N(C)CC(=O)N(C)[C@H]2C/C=C\CCN(C2=O)[C@@H](Cc2ccc(C)cc2)C(=O)N(C)CC(=O)N[C@@H](CCc2ccc(C(F)(F)F)c(Cl)c2)C(=O)N2CC3(CC3)C[C@H]2C(=O)N(C)C2(CCC2)C(=O)N(C)[C@@H](C(CC)CC)C(=O)N(C)[C@H](C(=O)N(C)C)CC(=O)N1C [PP3324] | 9.64 | AA (a compound having 20 or more is denoted as AA) | B (a compound having 3 or more and less than 10 is denoted as B) | 7.79 |  |  |  |  |  |
| CC[C@H](C)[C@@H]1NC(=O)[C@H](CC)N(C)C(=O)C[C@@H](C(=O)N(C)C)N(C)C(=O)[C@H](C2CCCC2)N(C)C(=O)C2(CCC2)NC(=O)[C@@H]2CC(F)(F)CN2C(=O)[C@H](CCc2cc(F)c(C(F)(F)F)c(F)c2)NC(=O)CN(C)C(=O)[C@H](CC2CCCCC2)N2CC/C=C\C[C@@H](C2=O)N(C)C(=O)CN(C)C1=O [PP1462] |  |  |  |  | 9.92 | A (a compound having 10 or more and less than 20 is denoted as A) | A (a compound having 10 or more and less than 20 is denoted as A) | 7.56 |  |
| CCCO[C@@H]1C[C@H]2C(=O)NC3(CC(C)(C)C3)C(=O)N(C)[C@@H](C3CCCC3)C(=O)N(C)[C@H](C(=O)N(C)CC)CC(=O)N(C)[C@@H](COCC)C(=O)N[C@@H]([C@@H](C)CC)C(=O)N(C3CC3)CC(=O)N(C)[C@H]3C/C=C\CCN(C3=O)[C@@H](Cc3ccc(C(F)(F)F)cc3)C(=O)N(C)CC(=O)N[C@@H](CCc3ccc(C(F)(F)F)c(OC)c3)C(=O)N2C1 [PP3411] | 9.14 | A (a compound having 10 or more and less than 20 is denoted as A) | A (a compound having 10 or more and less than 20 is denoted as A) | 7.59 |  |  |  |  |  |
| CCO[C@@H]1C[C@H]2C(=O)NC3(CCC3)C(=O)N(C)[C@@H](C(CC)CC)C(=O)N(C)[C@H](C(=O)N3CCOCC3)CC(=O)N(C)[C@@H](CC(C)C)C(=O)N[C@@H]([C@@H](C)CC)C(=O)N(C)CC(=O)N(C)[C@H]3C/C=C\CCN(C3=O)[C@@H](Cc3ccc(C(F)(F)F)cc3)C(=O)N(C)CC(=O)N[C@@H](CCc3cc(F)c(C(F)(F)F)c(F)c3)C(=O)N2C1 [PP1287] |  |  |  |  | 9.25 | AA (a compound having 20 or more is denoted as AA) | A (a compound having 10 or more and less than 20 is denoted as A) | 7.30 |  |
| CCC[C@H]1C(=O)N[C@@H]([C@@H](C)CC)C(=O)N(C2CC2)CC(=O)N(C)[C@H]2C/C=C\CCN(C2=O)[C@@H](Cc2ccc(C)cc2)C(=O)N(C)CC(=O)N[C@@H](CCc2ccc(C(F)(F)F)c(OC)c2)C(=O)N2C[C@H](OCC)C[C@H]2C(=O)OC2(CCC2)C(=O)N(C)[C@@H](C2CCCC2)C(=O)N(C)[C@H](C(=O)N(C)C)CC(=O)N1C [PP3387] | 9.25 | A (a compound having 10 or more and less than 20 is denoted as A) | B (a compound having 3 or more and less than 10 is denoted as B) | 7.95 |  |  |  |  |  |
| CCC[C@H]1C(=O)N[C@@H]([C@@H](C)CC)C(=O)N(C)CC(=O)N(C)[C@H]2C/C=C\CCN(C2=O)[C@@H](Cc2ccc(C(F)(F)F)cc2)C(=O)N(C)CC(=O)N[C@@H](CCc2ccc(C(F)(F)F)c(OC)c2)C(=O)N2CC3(CC3)C[C@H]2C(=O)NC2(CCC2)C(=O)N(C)[C@@H](C(CC)CC)C(=O)N(C)[C@H](C(=O)N(C)C)CC(=O)N1C [PP3408] | 9.49 | AA (a compound having 20 or more is denoted as AA) | A (a compound having 10 or more and less than 20 is denoted as A) | 7.89 |  |  |  |  |  |
| CC[C@H](C)[C@@H]1NC(=O)[C@H](CC)N(C)C(=O)C[C@@H](C(=O)N(C)C)N(C)C(=O)[C@H](C2CCCC2)N(C)C(=O)C2(CCC2)NC(=O)CN(CC)C(=O)[C@H](CCc2cc(F)c(C(F)(F)F)c(F)c2)NC(=O)CN(C)C(=O)[C@H](Cc2ccc(C(F)(F)F)cc2)N2CC/C=C\C[C@@H](C2=O)N(C)C(=O)CN(C)C1=O [PP1143] |  |  |  |  | 9.77 | A (a compound having 10 or more and less than 20 is denoted as A) | A (a compound having 10 or more and less than 20 is denoted as A) | 7.12 |  |
| CC[C@H](C)[C@@H]1NC(=O)[C@H](CC)N(C)C(=O)C[C@@H](C(=O)N(C)C)N(C)C(=O)[C@H](C2CCCC2)N(C)C(=O)C2(CCC2)NC(=O)[C@@H]2C[C@H](C)CN2C(=O)[C@H](CCc2cc(F)c(C(F)(F)F)c(F)c2)NC(=O)CN(C)C(=O)[C@H](CC2CCCCC2)N2CC/C=C\C[C@@H](C2=O)N(C)C(=O)CN(C)C1=O [PP1471] |  |  |  |  | 9.60 | A (a compound having 10 or more and less than 20 is denoted as A) | A (a compound having 10 or more and less than 20 is denoted as A) | 7.32 |  |
| CCCOC[C@H]1C(=O)N[C@@H](C2CCCC2)C(=O)N(CCC)CC(=O)N(C)[C@H]2C/C=C\CCN(C2=O)[C@@H](Cc2ccc(C(F)F)cc2)C(=O)N(C)CC(=O)N[C@@H](CCc2cc(F)c(C(F)(F)F)c(F)c2)C(=O)N2C[C@H](OCC)C[C@H]2C(=O)N(C)C2(CCC2)C(=O)N(C)[C@@H](C(CC)CC)C(=O)N(C)[C@H](C(=O)N(C)C)CC(=O)N1C [PP3507] | 9.05 | A (a compound having 10 or more and less than 20 is denoted as A) | A (a compound having 10 or more and less than 20 is denoted as A) | 7.53 |  |  |  |  |  |
| CCC[C@H]1C(=O)N[C@@H]([C@@H](C)CC)C(=O)N(C)CC(=O)N(C)[C@H]2C/C=C\CCN(C2=O)[C@@H](Cc2ccc(C)cc2)C(=O)N(C)CC(=O)N[C@@H](CCc2cc(F)c(C(F)(F)F)c(F)c2)C(=O)N2CC3(CC3)C[C@H]2C(=O)N(C)C2(CCC2)C(=O)N(C)[C@@H](C(CC)CC)C(=O)N(C)[C@H](C(=O)N(C)C)CC(=O)N1C [PP3329] | 9.64 | A (a compound having 10 or more and less than 20 is denoted as A) | B (a compound having 3 or more and less than 10 is denoted as B) | 8.06 |  |  |  |  |  |
| CCOC[C@H]1C(=O)N[C@@H]([C@@H](C)CC)C(=O)N2CCC[C@H]2C(=O)N(C)[C@H]2C/C=C\CCN(C2=O)[C@@H](Cc2ccc(C)cc2)C(=O)N(C)CC(=O)N[C@@H](CCc2cc(F)c(C(F)(F)F)c(F)c2)C(=O)N2C[C@H](OCC)C[C@H]2C(=O)NC2(CC(C)(C)C2)C(=O)N(C)[C@@H](C2CCCC2)C(=O)N(C)[C@H](C(=O)N(C)CC)CC(=O)N1C [PP2428] |  | A (a compound having 10 or more and less than 20 is denoted as A) | A (a compound having 10 or more and less than 20 is denoted as A) | 8.32 |  |  |  |  | 9.21 |
| CCO[C@@H]1C[C@H]2C(=O)NC3(CC(C)(C)C3)C(=O)N(C)[C@@H](C(CC)CC)C(=O)N(C)[C@H](C(=O)N(C)C)CC(=O)N(C)[C@@H](C(C)C)C(=O)N[C@@H]([C@@H](C)CC)C(=O)N(C)CC(=O)N(C)[C@H]3C/C=C\CCN(C3=O)[C@@H](CC3CCC(F)(F)CC3)C(=O)N(C)CC(=O)N[C@@H](CCc3cc(F)c(C(F)(F)F)c(F)c3)C(=O)N2C1 [PP2481] |  | A (a compound having 10 or more and less than 20 is denoted as A) | A (a compound having 10 or more and less than 20 is denoted as A) | 7.47 |  |  |  |  | 8.80 |
| C#CCN1CC(=O)N(C)[C@H]2C/C=C\CCN(C2=O)[C@@H](Cc2ccc(C(F)F)cc2)C(=O)N(C)CC(=O)N[C@@H](CCc2cc(F)c(C(F)(F)F)c(F)c2)C(=O)N2C[C@H](OCC)C[C@H]2C(=O)N(C)C2(CCC2)C(=O)N(C)[C@@H](C(CC)CC)C(=O)N(C)[C@H](C(=O)N(C)C)CC(=O)N(C)[C@@H](COCCC)C(=O)N[C@@H]([C@@H](C)OC)C1=O [PP3506] | 9.14 | A (a compound having 10 or more and less than 20 is denoted as A) | A (a compound having 10 or more and less than 20 is denoted as A) | 7.90 |  |  |  |  |  |
| CCC[C@H]1C(=O)N[C@@H](C2CCCC2)C(=O)N(C)CC(=O)N(C)[C@H]2C/C=C\CCN(C2=O)[C@@H](Cc2ccc(C)cc2)C(=O)N(C)CC(=O)N[C@@H](CCc2ccc(C(F)(F)F)c(Cl)c2)C(=O)N2CC3(CC3)C[C@H]2C(=O)N(C)C2(CCC2)C(=O)N(C)[C@@H](CC(C)(C)C)C(=O)N(C)[C@H](C(=O)N(C)C)CC(=O)N1C [PP3328] | 10.59 | A (a compound having 10 or more and less than 20 is denoted as A) | B (a compound having 3 or more and less than 10 is denoted as B) | 8.77 |  |  |  |  |  |
